From US8211412B2, “Method for skin whitening” (Shiseido Company Ltd., priority 2009, dated 2012)

System: Mouse B16 melanoma cells
Experiment: Melanin production inhibition test
Format: cell-based
Conditions: 3 days after addition, graded by minimum non-cytotoxic concentration at which ratio of melanin amount was 80% or less
Experimental: A test for melanin production inhibition by the compounds of the formula (1) was conducted. The test method is as follows.
Melanin Production Inhibition Test
(1) Inoculation of Cells and Addition of Test Substances
Mouse B16 melanoma cells were inoculated in a six well plate at 100,000 cells/well. The next day, test substance solutions (solvent: DMSO) were added.
(2) Cell Proliferation Test
Three days after the addition of the test substance solution, the medium was removed by aspiration. Then 1 ml of EMEM medium containing 10% Alamar Blue solution was added, and a reaction was allowed to proceed at 37° C. After 30 minutes, 100 μL of the reaction mixture was transferred to a 96 well plate and fluorescence was measured at an excitation wavelength of 544 nm and a measurement wavelength of 590 nm. Using the value thus measured as a relative value of cell count, a ratio of the cell count (% cell count) of the test substance-added group to the test substance-absent group (group in which only the solvent was added) was calculated. […] It was determined that a compound having the % cell count of 80% or more was non-cytotoxic, and that a compound having the % cell count of less than 80% was cytotoxic.
(3) Quantification of Melanin
The cells after the cell proliferation test were washed with PBS three times, and then lysed by addition of 200 μL of 1M NaOH to measure an absorbance at 475 nm. […]

## CC1(C)CSC(Nc2ccccc2)=N1 [Compound 1, 4,4-dimethyl-N-phenyl-4,5-dihydrothiazol-2-amine]
  Inhibitory effect on melanin production: ⊚ (the minimum concentration for inhibition of melanin production was 1 ppm or less)
